Reference: PubChem BioAssay (NCI)
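96-well plates; 48 h exposure; 5 concentrations. Endpoints by linear interpolation between flanking doses. Not reached: highest tested concentration assigned. Abbreviation: GI50, concentration required for 50% inhibition of growth. TGI denotes the concentration required for complete inhibition of growth.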

What was measured:
Assay in all cases: NCI tumour cell line growth inhibition, 48 h
KM12 colon = tested on: KM12 colon
SR leukemia = tested on: SR leukemia
SK-MEL-28 melanoma = tested on: SK-MEL-28 melanoma
A498 renal = tested on: A498 renal
NCI-H226 lung = tested on: NCI-H226 lung
HOP-62 NSCLC = tested on: HOP-62 NSCLC
T-47D breast = tested on: T-47D breast
OVCAR-5 ovarian = tested on: OVCAR-5 ovarian
SNB-75 CNS = tested on: SNB-75 CNS
LOX IMVI melanoma = tested on: LOX IMVI melanoma
HCT-15 colon = tested on: HCT-15 colon
UACC-257 melanoma = tested on: UACC-257 melanoma
TK-10 renal = tested on: TK-10 renal
OVCAR-8 ovarian = tested on: OVCAR-8 ovarian
PC-3 prostate = tested on: PC-3 prostate
K-562 leukemia = tested on: K-562 leukemia
NCI-H23 lung = tested on: NCI-H23 lung
MCF7 breast = tested on: MCF7 breast
NCI-H460 lung = tested on: NCI-H460 lung
MALME-3M melanoma = tested on: MALME-3M melanoma
SF-295 CNS = tested on: SF-295 CNS
HS 578T breast = tested on: HS 578T breast
IGROV1 ovarian = tested on: IGROV1 ovarian
UACC-62 melanoma = tested on: UACC-62 melanoma
786-0 renal = tested on: 786-0 renal
SNB-19 CNS = tested on: SNB-19 CNS
RXF 393 renal = tested on: RXF 393 renal
COLO 205 colon = tested on: COLO 205 colon
M14 melanoma = tested on: M14 melanoma
OVCAR-3 ovarian = tested on: OVCAR-3 ovarian
NCI/ADR-RES ovarian = tested on: NCI/ADR-RES ovarian
ACHN renal = tested on: ACHN renal
MDA-MB-468 breast = tested on: MDA-MB-468 breast
HT29 colon = tested on: HT29 colon
MOLT-4 leukemia = tested on: MOLT-4 leukemia
UO-31 renal = tested on: UO-31 renal
SK-OV-3 ovarian = tested on: SK-OV-3 ovarian
SF-268 CNS = tested on: SF-268 CNS
SW-620 colon = tested on: SW-620 colon
SN12C renal = tested on: SN12C renal
SF-539 CNS = tested on: SF-539 CNS
DU-145 prostate = tested on: DU-145 prostate
CAKI-1 renal = tested on: CAKI-1 renal
SK-MEL-5 melanoma = tested on: SK-MEL-5 melanoma
HOP-92 NSCLC = tested on: HOP-92 NSCLC
CCRF-CEM leukemia = tested on: CCRF-CEM leukemia
MDA-MB-231 breast = tested on: MDA-MB-231 breast
U251 CNS = tested on: U251 CNS
HL-60(TB) leukemia = tested on: HL-60(TB) leukemia
EKVX NSCLC = tested on: EKVX NSCLC
OVCAR-4 ovarian = tested on: OVCAR-4 ovarian
A549 NSCLC = tested on: A549 NSCLC
MDA-MB-435 = tested on: MDA-MB-435
RPMI-8226 leukemia = tested on: RPMI-8226 leukemia
HCC-2998 colon = tested on: HCC-2998 colon
NCI-H522 lung = tested on: NCI-H522 lung
BT-549 breast = tested on: BT-549 breast
SK-MEL-2 melanoma = tested on: SK-MEL-2 melanoma

## CN1CCN(c2ccc(C(=O)/C=C/c3cc(C(F)(F)F)ccc3Cl)cc2)CC1
KM12 colon
  GI50: 3.1 µM
  TGI: 9.83 µM
SR leukemia
  GI50: > 100 µM
  TGI: > 100 µM
SK-MEL-28 melanoma
  GI50: 10.5 µM
  TGI: 22.3 µM
A498 renal
  GI50: 17.4 µM
  TGI: 32 µM
NCI-H226 lung
  GI50: 4.55 µM
  TGI: 18.6 µM
HOP-62 NSCLC
  GI50: 13.9 µM
  TGI: 29.7 µM
T-47D breast
  GI50: 12.3 µM
  TGI: 39.8 µM
OVCAR-5 ovarian
  GI50: 13.9 µM
  TGI: 26.9 µM
SNB-75 CNS
  GI50: 2.66 µM
  TGI: 15.6 µM
LOX IMVI melanoma
  GI50: 1.63 µM
  TGI: 2.99 µM
HCT-15 colon
  GI50: 1.87 µM
  TGI: 3.78 µM
UACC-257 melanoma
  GI50: 10.4 µM
  TGI: 23.7 µM
TK-10 renal
  GI50: 13.5 µM
  TGI: 29 µM
OVCAR-8 ovarian
  GI50: 9.04 µM
  TGI: 26.2 µM
PC-3 prostate
  GI50: 3.06 µM
  TGI: 13.2 µM
K-562 leukemia
  GI50: 2.17 µM
  TGI: > 100 µM
NCI-H23 lung
  GI50: 3.89 µM
  TGI: 14.2 µM
MCF7 breast
  GI50: 1.42 µM
  TGI: 2.94 µM
NCI-H460 lung
  GI50: 8.73 µM
  TGI: 22.3 µM
MALME-3M melanoma
  GI50: 11.2 µM
  TGI: 23.4 µM
SF-295 CNS
  GI50: 6.89 µM
  TGI: 19.8 µM
HS 578T breast
  GI50: 5.48 µM
  TGI: 28.7 µM
IGROV1 ovarian
  GI50: 3.33 µM
  TGI: 13 µM
UACC-62 melanoma
  GI50: 10.9 µM
  TGI: 22.8 µM
786-0 renal
  GI50: 2.22 µM
  TGI: 5.74 µM
SNB-19 CNS
  GI50: 8.95 µM
  TGI: 21 µM
RXF 393 renal
  GI50: 2.16 µM
  TGI: 11.1 µM
COLO 205 colon
  GI50: 3.48 µM
  TGI: 10.7 µM
M14 melanoma
  GI50: 3.13 µM
  TGI: 10.9 µM
OVCAR-3 ovarian
  GI50: 4.08 µM
  TGI: 14.4 µM
NCI/ADR-RES ovarian
  GI50: 3.5 µM
  TGI: 12.8 µM
ACHN renal
  GI50: 4.92 µM
  TGI: 16.8 µM
MDA-MB-468 breast
  GI50: 1.59 µM
  TGI: 3.48 µM
HT29 colon
  GI50: 2.01 µM
  TGI: 5.02 µM
MOLT-4 leukemia
  GI50: 4.94 µM
  TGI: 93.6 µM
UO-31 renal
  GI50: 4.09 µM
  TGI: 16.4 µM
SK-OV-3 ovarian
  GI50: 5.66 µM
  TGI: 18.8 µM
SF-268 CNS
  GI50: 14.1 µM
  TGI: 37.7 µM
SW-620 colon
  GI50: 2.08 µM
  TGI: 4.02 µM
SN12C renal
  GI50: 4.32 µM
  TGI: 16.4 µM
SF-539 CNS
  GI50: 1.92 µM
  TGI: 4.38 µM
DU-145 prostate
  GI50: 5.5 µM
  TGI: 20.5 µM
CAKI-1 renal
  GI50: 8.23 µM
  TGI: 21.2 µM
SK-MEL-5 melanoma
  GI50: 3.71 µM
  TGI: 15 µM
HOP-92 NSCLC
  GI50: 3.79 µM
  TGI: 18.1 µM
CCRF-CEM leukemia
  GI50: 2.17 µM
  TGI: 5.93 µM
MDA-MB-231 breast
  GI50: 2.81 µM
  TGI: 8.01 µM
U251 CNS
  GI50: 2.1 µM
  TGI: 4.85 µM
HL-60(TB) leukemia
  GI50: 2.14 µM
  TGI: 7.53 µM
EKVX NSCLC
  GI50: 5.94 µM
  TGI: 19 µM
OVCAR-4 ovarian
  GI50: 10.7 µM
  TGI: 29 µM
A549 NSCLC
  GI50: 3.65 µM
  TGI: 14.8 µM
MDA-MB-435
  GI50: 2.14 µM
  TGI: 5.06 µM
RPMI-8226 leukemia
  GI50: 1.77 µM
  TGI: 4.68 µM
HCC-2998 colon
  GI50: 1.81 µM
  TGI: 3.2 µM
NCI-H522 lung
  GI50: 12.3 µM
  TGI: 27.9 µM
BT-549 breast
  GI50: 5.42 µM
  TGI: 20.4 µM
SK-MEL-2 melanoma
  GI50: 17 µM
  TGI: 32 µM
